Assay results as given in US12673918B2, “Small molecule RPN13 inhibitors with antitumor properties” (The Johns Hopkins University, priority 2019, dated 2026).
Where two headings read alike, the source gives them in different places.

Columns and labels:
SKOV3 cells = assay: XTT cytotoxicity assay, SKOV3; type: cell-based, human
Description: (§1) The impact of substituents of the aromatic ring on the potency of molecules was also examined. The presence of either an electron withdrawing group (EWG) or an electron donating group (EDG) influences the reactivity of a Michael acceptor towards the target protein but can also impact specificity/selectivity.

HeLa cells = assay: XTT cytotoxicity assay, HeLa; type: cell-based, human
Description: as §1

[1] = Table 1, XTT assay, read-out: IC50 SKOV3
[2] = Table 1, XTT assay, read-out: IC50 HeLa
[3] = Table 2, read-out: IC50 SKOV3 (bridge compounds)
[4] = Table 2, read-out: IC50 HeLa (bridge compounds)

Structure (SMILES)	IC50 (SKOV3 cells; [1]) [nM]	IC50 (HeLa cells; [2]) [nM]	other results
O=C1C(=Cc2ccc(O)c(O)c2)CNCC1=Cc1ccc(O)c(O)c1 [DHBC]	788	667	
CC(N)C(=O)N1CC(=Cc2ccc(Cl)c(Cl)c2)C(=O)C(=Cc2ccc(Cl)c(Cl)c2)C1 (centres unmarked) [RA7-Ala]	92	68	
NCC(=O)N1CC(=Cc2ccc(Cl)c(Cl)c2)C(=O)C(=Cc2ccc(Cl)c(Cl)c2)C1 [RA7-Gly]	78	65	
CCC(C)C(NC(=O)C(F)(F)F)C(=O)N1CC(=Cc2ccc(Cl)c(Cl)c2)C(=O)C(=Cc2ccc(Cl)c(Cl)c2)C1 (centres unmarked) [RA7-IleC]	77	61	
CCC(C)C(N)C(=O)N1CC(=Cc2ccc(Cl)c(Cl)c2)C(=O)C(=Cc2ccc(Cl)c(Cl)c2)C1 (centres unmarked) [RA7-Ile]	101	72	
CC(C)C(N)C(=O)N1CC(=Cc2ccc(Cl)c(Cl)c2)C(=O)C(=Cc2ccc(Cl)c(Cl)c2)C1 (centres unmarked) [RA7-Val]	72	64	
O=C1C(=Cc2ccc(Cl)c(Cl)c2)CNCC1=Cc1ccc(Cl)c(Cl)c1 [RA7]	654	532	
CC(=O)NC(Cc1ccccc1)C(=O)N1CC(=Cc2ccc([N+](=O)[O-])cc2)C(=O)C(=Cc2ccc([N+](=O)[O-])cc2)C1 (centres unmarked) [RA183Ac]	71	56	
C=CC(=O)NC(Cc1ccccc1)C(=O)N1CC(=Cc2ccc([N+](=O)[O-])cc2)C(=O)C(=Cc2ccc([N+](=O)[O-])cc2)C1 (centres unmarked) [RA183Acr]	64	49	
O=C1C(=Cc2ccc([N+](=O)[O-])cc2)CN(C(=O)C(Cc2ccccc2)NC(=O)C(F)(F)F)CC1=Cc1ccc([N+](=O)[O-])cc1 (centres unmarked) [RA183CF3]	79	45	
C=CC(=O)N[C@@H](Cc1ccccc1)C(=O)N1C/C(=C\c2ccc(Cl)c(Cl)c2)C(=O)/C(=C/c2ccc(Cl)c(Cl)c2)C1 [RA190 ACR]	62	42	
NCCCCCC(=O)NC(Cc1ccccc1)C(=O)N1CC(=Cc2ccc(Cl)c(Cl)c2)C(=O)C(=Cc2ccc(Cl)c(Cl)c2)C1 (centres unmarked) [RA190AHA]	88	62	
CC(=O)N[C@@H](Cc1ccccc1)C(=O)N1C/C(=C\c2ccc(Cl)c(Cl)c2)C(=O)/C(=C/c2ccc(Cl)c(Cl)c2)C1 [RA190Ac]	68	46	
O=C(CCCC[C@@H]1SCC2NC(=O)NC21)N[C@@H](Cc1ccccc1)C(=O)N1C/C(=C\c2ccc(Cl)c(Cl)c2)C(=O)/C(=C/c2ccc(Cl)c(Cl)c2)C1 (some centres unmarked) [RA190B, reference compound]		346	
O=C1C(=Cc2ccc(Cl)c(Cl)c2)CN(C(=O)C(Cc2ccccc2)NC(=O)c2ccccc2)CC1=Cc1ccc(Cl)c(Cl)c1 (centres unmarked) [RA190Bn]	121	86	
N#CCC(=O)NC(Cc1ccccc1)C(=O)N1CC(=Cc2ccc(Cl)c(Cl)c2)C(=O)C(=Cc2ccc(Cl)c(Cl)c2)C1 (centres unmarked) [RA190CA]	84	51	
O=C1C(=Cc2ccc(Cl)c(Cl)c2)CN(C(=O)C(Cc2ccccc2)NS(=O)(=O)c2ccc(-c3ccno3)s2)CC1=Cc1ccc(Cl)c(Cl)c1 (centres unmarked) [RA190IAS]	342	211	
CS(=O)(=O)NC(Cc1ccccc1)C(=O)N1CC(=Cc2ccc(Cl)c(Cl)c2)C(=O)C(=Cc2ccc(Cl)c(Cl)c2)C1 (centres unmarked) [RA190MS]	133	86	
CNC(=O)NC(Cc1ccccc1)C(=O)N1CC(=Cc2ccc(Cl)c(Cl)c2)C(=O)C(=Cc2ccc(Cl)c(Cl)c2)C1 (centres unmarked) [RA190MU]	239	141	
Cn1cncc1S(=O)(=O)NC(Cc1ccccc1)C(=O)N1CC(=Cc2ccc(Cl)c(Cl)c2)C(=O)C(=Cc2ccc(Cl)c(Cl)c2)C1 (centres unmarked) [RA190NMS]	94	78	
O=C1C(=Cc2ccc(Cl)c(Cl)c2)CN(C(=O)C(Cc2ccccc2)NC(=O)c2ccccn2)CC1=Cc1ccc(Cl)c(Cl)c1 (centres unmarked) [RA190P]	64	55	
O=C1C(=Cc2ccc(Cl)c(Cl)c2)CN(C(=O)C(Cc2ccccc2)NC(=O)c2cnccn2)CC1=Cc1ccc(Cl)c(Cl)c1 (centres unmarked) [RA190PyC]	84	65	
O=C(O)CCC(=O)NC(Cc1ccccc1)C(=O)N1CC(=Cc2ccc(Cl)c(Cl)c2)C(=O)C(=Cc2ccc(Cl)c(Cl)c2)C1 (centres unmarked) [RA190SA]	253	121	
COc1cc(C(=O)NC(Cc2ccccc2)C(=O)N2CC(=Cc3ccc(Cl)c(Cl)c3)C(=O)C(=Cc3ccc(Cl)c(Cl)c3)C2)cc(OC)c1OC (centres unmarked) [RA190TMB]	112	94	
CCCC(CCC)C(=O)NC(Cc1ccccc1)C(=O)N1CC(=Cc2ccc(Cl)c(Cl)c2)C(=O)C(=Cc2ccc(Cl)c(Cl)c2)C1 (centres unmarked) [RA190VA]	87	74	
C=Cc1ccc(C(=O)NC(Cc2ccccc2)C(=O)N2CC(=Cc3ccc(Cl)c(Cl)c3)C(=O)C(=Cc3ccc(Cl)c(Cl)c3)C2)cc1 (centres unmarked) [RA190VBA]	178	94	
CC(C)CC(N)C(=O)N1CC(=Cc2ccc(Cl)c(Cl)c2)C(=O)C(=Cc2ccc(Cl)c(Cl)c2)C1 (centres unmarked) [RA228]	98	66	
O=C1C(=Cc2ccc(Cl)c(Cl)c2)CN(C(=O)C(Cc2ccccc2)NC(=O)C(F)(F)F)CC1=Cc1ccc(Cl)c(Cl)c1 (centres unmarked) [RA230]	69	47	

Structure (SMILES)	IC50 (SKOV3 cells; [1]) [nM]	IC50 (HeLa cells; [2]) [nM]	other results
Cc1ccc(S(=O)(=O)NC(Cc2ccccc2)C(=O)N2CC(=Cc3ccc(Cl)c(Cl)c3)C(=O)C(=Cc3ccc(Cl)c(Cl)c3)C2)cc1 (centres unmarked) [RA231]	167	111	
O=C1C(=Cc2ccc(Cl)c(Cl)c2)CN(C(=O)C(Cc2ccccc2)NC(=O)N2CCOCC2)CC1=Cc1ccc(Cl)c(Cl)c1 (centres unmarked) [RA232]	77	61	
O=C1C(=Cc2ccc(Cl)c(Cl)c2)CN(C(=O)C(Cc2ccccc2)NC(=O)c2cccnc2)CC1=Cc1ccc(Cl)c(Cl)c1 (centres unmarked) [RA233]	98	76	
O=C(Nc1ccccc1)NC(Cc1ccccc1)C(=O)N1CC(=Cc2ccc(Cl)c(Cl)c2)C(=O)C(=Cc2ccc(Cl)c(Cl)c2)C1 (centres unmarked) [RA234]	235	143	
NC(Cc1ccc(O)cc1)C(=O)N1CC(=Cc2ccc(Cl)c(Cl)c2)C(=O)C(=Cc2ccc(Cl)c(Cl)c2)C1 (centres unmarked) [RA295]	116	89	
CC(=O)NCCCCC(N)C(=O)NC(Cc1ccccc1)C(=O)N1CC(=Cc2ccc(Cl)c(Cl)c2)C(=O)C(=Cc2ccc(Cl)c(Cl)c2)C1 (centres unmarked) [RA310Ac]	284	195	
Cl.NCCCCC(N)C(=O)NC(Cc1ccccc1)C(=O)N1CC(=Cc2ccc(Cl)c(Cl)c2)C(=O)C(=Cc2ccc(Cl)c(Cl)c2)C1 (centres unmarked) [RA310]	446	543	fold decreased potency compared to RA190 (HeLa cells; cytotoxicity, Table 1 cell lines (HeLa, SKOV3)): 3 fold
O=C1C(=Cc2ccc(Cl)c(Cl)c2)C2CCC(N2)C1=Cc1ccc(Cl)c(Cl)c1 [RA329]			IC50 (SKOV3 cells; [3]): 471 nM; IC50 (HeLa cells; [4]): 407 nM
O=C1C(=Cc2ccccc2)C2CCC(N2)C1=Cc1ccccc1 [RA330]			IC50 (SKOV3 cells; [3]): 278 nM; IC50 (HeLa cells; [4]): 239 nM
O=C1C(=Cc2ccc([N+](=O)[O-])cc2)C2CCC(N2)C1=Cc1ccc([N+](=O)[O-])cc1 [RA331]			IC50 (SKOV3 cells; [3]): 301 nM; IC50 (HeLa cells; [4]): 236 nM
O=C1C(=Cc2ccc(-c3cccnc3)cc2)C2CCC(N2)C1=Cc1ccc(-c2cccnc2)cc1 [RA332]			IC50 (SKOV3 cells; [3]): 376 nM; IC50 (HeLa cells; [4]): 243 nM
C=CC(=O)N1C2CCC1C(=Cc1ccc([N+](=O)[O-])cc1)C(=O)C2=Cc1ccc([N+](=O)[O-])cc1 [RA333]			IC50 (SKOV3 cells; [3]): 167 nM; IC50 (HeLa cells; [4]): 112 nM
C=CC(=O)N1C2CCC1C(=Cc1ccc(Cl)c(Cl)c1)C(=O)C2=Cc1ccc(Cl)c(Cl)c1 [RA334]			IC50 (SKOV3 cells; [3]): 186 nM; IC50 (HeLa cells; [4]): 101 nM
CC(=O)N1C2CCC1C(=Cc1ccc(Cl)c(Cl)c1)C(=O)C2=Cc1ccc(Cl)c(Cl)c1 [RA335]			IC50 (SKOV3 cells; [3]): 251 nM; IC50 (HeLa cells; [4]): 161 nM
C=CC(=O)N1C2CCC1C(=Cc1ccccc1)C(=O)C2=Cc1ccccc1 [RA336]			IC50 (SKOV3 cells; [3]): 185 nM; IC50 (HeLa cells; [4]): 146 nM
CC(=O)N1C2CCC1C(=Cc1ccccc1)C(=O)C2=Cc1ccccc1 [RA337]			IC50 (SKOV3 cells; [3]): 231 nM; IC50 (HeLa cells; [4]): 186 nM
C=CC(=O)NC(Cc1ccccc1)C(=O)N1C2CCC1C(=Cc1ccc(Cl)c(Cl)c1)C(=O)C2=Cc1ccc(Cl)c(Cl)c1 (centres unmarked) [RA339]			IC50 (SKOV3 cells; [3]): 54 nM; IC50 (HeLa cells; [4]): 46 nM
C=CC(=O)N1C2CCC1C(=Cc1ccc(-c3cccnc3)cc1)C(=O)C2=Cc1ccc(-c2cccnc2)cc1 [RA340]			IC50 (SKOV3 cells; [3]): 259 nM; IC50 (HeLa cells; [4]): 184 nM
O=C(CCl)N[C@@H](Cc1ccccc1)C(=O)N1C/C(=C\c2ccc(Cl)c(Cl)c2)C(=O)/C(=C/c2ccc(Cl)c(Cl)c2)C1 [RA371]			IC50 (SKOV3 cells; Homo sapiens, SK-OV-3, Table 1, XTT assay, read-out: IC50 SKOV3): 47 nM; IC50 (HeLa cells; Homo sapiens, HeLa, Table 1, XTT assay, read-out: IC50 HeLa): 44 nM
NC(Cc1ccccc1)C(=O)N1CC(=Cc2ccc(Cl)cc2)C(=O)C(=Cc2ccc(Cl)cc2)C1 (centres unmarked) [RA-4Cl]	83	71	
O=C(CCl)NC(Cc1ccccc1)C(=O)N1CC(=Cc2csc(Br)c2)C(=O)C(=Cc2csc(Br)c2)C1 (centres unmarked) [RA-BTPCA]	189	132	
NC(Cc1ccccc1)C(=O)N1CC(=Cc2ccc(Cl)c(C(F)(F)F)c2)C(=O)C(=Cc2ccc(Cl)c(C(F)(F)F)c2)C1 (centres unmarked) [RA-CTFP]	81	56	
O=C1C(=Cc2ccc(Cl)c(C(F)(F)F)c2)CNCC1=Cc1ccc(Cl)c(C(F)(F)F)c1 [RA-CTF]	457	324	
O=C1C(=CC=Cc2ccccc2)CNCC1=CC=Cc1ccccc1 [RA-Cinn]	> 5000	> 5000	
COc1cc(C=C2CN(C(=O)C(N)Cc3ccccc3)CC(=Cc3cc(OC)c(OC)c(OC)c3)C2=O)cc(OC)c1OC (centres unmarked) [RA-TMP]	125	78	
NC(Cc1ccccc1)C(=O)N1CC(=Cc2ccc([N+](=O)[O-])cc2)C(=O)C(=Cc2ccc(Cl)c(Cl)c2)C1 (centres unmarked) [RA-asyP]	62	48	
O=C1C(=Cc2ccc([N+](=O)[O-])cc2)CNCC1=Cc1ccc(Cl)c(Cl)c1 [RA-asy]	398	312	
